Source: patent US9108983B2, “Pyrrole compounds, a process for their preparation and pharmaceutical compositions containing them” (LES LABORATOIRES SERVIER, priority 2013, dated 2015)
Counter-ions that a name gives are not always drawn. Like-named read-outs stand apart in the source and are kept apart here.

Experiments:
Bcl-2 protein = Bcl-2 protein (histag-Bcl-2, UniProtKB P10415) (Homo sapiens (Human), UniProt P10415); experiment: Inhibition of Bcl-2 by the fluorescence polarisation technique; format: binding; conditions: incubation for 2 hours, read-out: IC50 (nM) Bcl-2 FP
Chain of Bcl-2 protein (P10415 whole entry): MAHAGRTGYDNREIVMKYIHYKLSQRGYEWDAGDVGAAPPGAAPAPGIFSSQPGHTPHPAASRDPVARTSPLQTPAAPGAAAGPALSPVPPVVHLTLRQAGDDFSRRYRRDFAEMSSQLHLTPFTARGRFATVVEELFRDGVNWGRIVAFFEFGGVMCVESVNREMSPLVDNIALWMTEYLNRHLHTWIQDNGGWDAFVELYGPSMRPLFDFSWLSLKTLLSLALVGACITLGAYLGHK
How it was run: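 Fluorescence polarisation competition: His-tagged Bcl-2 (2.50×10^−8 M final) with fluorescein-labelled peptide (1.00×10^−8 M final) in 10 mM Hepes, 150 mM NaCl, 0.05% Tween20, pH 7.4. Increasing compound concentrations were added. Polarisation was read after 2 h incubation.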

[1] = system: RS4;11 leukaemia tumour line; experiment: In vitro cytotoxicity (Microculture Tetrazolium Assay); format: cell-based; conditions: RS4;11 cells, exposed for 48 hours, cell viability, read-out: IC50 (nM) MTT RS4;11
Method: The cytotoxicity studies were carried out on the RS4;11 leukaemia tumour line.
The cells are distributed onto microplates and exposed to the test compounds for 48 hours.
The cell viability is then quantified by a colorimetric assay, the Microculture Tetrazolium Assay (Cancer Res., 1987, 47, 939-942).

| SMILES | IC50 (Bcl-2 protein) [nM] | IC50 ([1]; Homo sapiens, RS4-11, 48 h) [nM] | IC50 [1] [nM] |
| --- | --- | --- | --- |
| Cc1c(C(=O)N(c2ccc(O)cc2)c2cc(C#N)nn2C)cc(-c2cc(Cl)ccc2C(=O)N2Cc3ccccc3C[C@H]2CN2CCOCC2)n1C [Example 450, 5-(5-Chloro-2-{[(3S)-3-(morpholin-4-ylmethyl)-3,4-dihydroisoquinolin-2(1H)-yl]carbonyl}phenyl)-N-(3-cyano-1-methyl-1H-pyrazol-5-yl)-N-(4-hydroxyphenyl)-1,2-dimethyl-1H-pyrrole-3-carboxamide hydrochloride] | 2.7 | 53.2 |  |
| Cc1c(C(=O)N(c2ccc(O)cc2)c2ccc3c(cnn3C)c2)cc(-c2cc3c(cc2C(=O)N2Cc4ccccc4C[C@H]2CN2CCOCC2)OCO3)n1C [Example 14, N-(4-Hydroxyphenyl)-1,2-dlmethyl-N-(1-methyl-1H-indazol-5-yl)-5-(6-{[(3S)-3-(morpholil-4-ylmethyl)-3,4-dihydroisoquinolin-2(1H)-yl]carbonyl}-1,3-benzodioxol-5-yl)-1H-pyrrole-3-carboxamide hydrochloride] | 3.7 |  | 8.23 |
| Cl.[2H]C([2H])([2H])n1cc(N(C(=O)c2cc(-c3cc(Cl)ccc3C(=O)N3Cc4ccccc4C[C@H]3CN3CCOCC3)n(C)c2C)c2ccc(O)cc2)cc1C#N [Example 448, 5-(5-Chloro-2-{[(3S)-3-(morpholin-4-ylmethyl)-3,4-dihydroisoquinolin-2(1H)-yl]carbonyl}phenyl)-N-[5-cyano-1-(trideuteriomethyl)-1H-pyrrol-3-yl]-N-(4-hydroxyphenyl)-1,2-dimethyl-1H-pyrrole-3-carboxamide hydrochloride] | 2.4 | 12.1 |  |
| Cc1c(C(=O)N(c2ccc(O)cc2)c2ccc3c(cnn3C)c2)cc(-c2cc(F)ccc2C(=O)N2Cc3ccccc3C[C@H]2CN2CCOCC2)n1C [Example 12, 5-(5-Fluoro-2-{[(3S)-3-(morpholin-4-ylmethyl)-3,4-dihydroisoquinolin-2(1H)-yl]carbonyl}phenyl)-N-(4-hydroxyphenyl)-1,2-dimethyl-N-(1-methyl-1H-indazol-5-yl)-1H-pyrrole-3-carboxamide hydrochloride] | 5.5 | 39.6 |  |
| Cc1c(C(=O)N(C)c2ccc(O)cc2)cc(-c2ccc(CNC(=O)COc3ccccc3)cc2C(=O)N2Cc3ccccc3C[C@H]2C)n1C [Example 35, N-(4-Hydroxyphenyl)-N,1,2-trimethyl-5-(2-{[(3R)-3-methyl-3,4-dihydroisoquinolin-2(1H)-yl]carbonyl}-4-{[(phenoxyacetyl)amino]methyl}phenyl)-1H-pyrrole-3-carboxamide] | 50 | 560 |  |
| Cc1c(C(=O)N(c2ccc(O)cc2)c2cnn(C)c2)cc(-c2ccccc2C(=O)N2Cc3ccccc3C[C@H]2CN2CCOCC2)n1C [Example 422, N-(4-Hydroxyphenyl)-1,2-dimethyl-N-(1-methyl-1H-pyrazol-4-yl)-5-(2-{[(3S)-3-(morpholin-4-ylmethyl)-3,4-dihydroisoquinolin-2(1H)-yl]carbonyl}phenyl)-1H-pyrrole-3-carboxamide hydrochloride] | 9.2 | 101 |  |
| COCCn1c(-c2cc3c(cc2C(=O)N2Cc4ccccc4C[C@H]2CN2CCOCC2)OCO3)cc(C(=O)N(c2ccc(O)cc2)c2cnn(C)c2)c1C [Example 93, N-(4-Hydroxyphenyl)-1-(2-methoxyethyl)-2-methyl-N-(1-methyl-1H-pyrazol-4-yl)-5-(6-{[(3S)-3-(morpholin-4-ylmethyl)-3,4-dihydroisoquinolin-2(1H)-yl]carbonyl}-1,3-benzodioxol-5-yl)-1H-pyrrole-3-carboxamide hydrochloride] | 19.7 | 368 |  |
| Cc1c(C(=O)N(c2ccc(O)cc2)c2cnc3c(ccn3C)c2)cc(-c2cc(Cl)ccc2C(=O)N2Cc3ccccc3CC2C(F)(F)F)n1C (stereo not shown) [Example 430, 5-(5-Chloro-2-{[3-(trifluoromethyl)-3,4-dihydroisoquinolin-2(1H)-yl]-carbonyl}phenyl)-N-(4-hydroxyphenyl)-1,2-dimethyl-N-(1-methyl-1H-pyrrolo[2,3-b]-pyridin-5-yl)-1H-pyrrole-3-carboxamide] | 19.9 | 328 |  |
| Cc1c(C(=O)N(c2ccncc2)c2ccc(O)cc2)cc(-c2cc3c(cc2C(=O)N2Cc4ccccc4C[C@H]2CN2CCOCC2)OCO3)n1C [Example 73, N-(4-Hydroxyphenyl)-1,2-dimethyl-5-(6-{[(3S)-3-(morpholin-4-ylmethyl)-3,4-dihydroisoquinolin-2(1H)-yl]carbonyl}-1,3-benzodioxol-5-yl)-N-(pyridin-4-yl)-1H-pyrrole-3-carboxamide dihydrochloride] | 8 | 42.6 |  |
| Cc1c(N(C(=O)c2cc(-c3ccc(F)cc3C(=O)N3Cc4ccccc4C[C@H]3CN3CCOCC3)n(C)c2C)c2ccc(O)cc2)cc(C#N)n1C [Example 428, N-(5-Cyano-1,2-dimethyl-1H-pyrrol-3-yl)-5-(4-fluoro-2-{[(3S)-3-(morpholin-4-ylmethyl)-3,4-dihydroisoquinolin-2(1H)-yl]carbonyl}phenyl)-N-(4-hydroxyphenyl)-1,2-dimethyl-1H-pyrrole-3-carboxamide hydrochloride] | 3.5 | 59.2 |  |
| Cc1c(C(=O)N(c2ccccc2)c2ccc(O)cc2)cc(-c2cc(Cl)ccc2C(=O)N2Cc3ccccc3C[C@H]2CO)n1C [Example 38, 5-(5-Chloro-2-{[(3S)-3-(hydroxymethyl)-3,4-dihydroisoquinolin-2(1H)-yl]carbonyl}phenyl)-N-(4-hydroxyphenyl)-1,2-dimethyl-N-phenyl-1H-pyrrole-3-carboxamide] | 7.5 | 134 |  |
| COC(=O)c1ccnc(N(C(=O)c2cc(-c3cc(Cl)ccc3C(=O)N3Cc4ccccc4C[C@H]3CN3CCOCC3)n(C)c2C)c2ccc(O)cc2)c1 [Example 400, Methyl 2-[{[5-(5-chloro-2-{[(3S)-3-(morpholin-4-ylmethyl)-3,4-dihydroisoquinolin-2(1H)-yl]carbonyl}phenyl)-1,2-dimethyl-1H-pyrrol-3-yl]carbonyl}(4-hydroxyphenyl)amino]pyridine-4-carboxylate hydrochloride] | 49 | 469 |  |
| Cc1c(C(=O)N(c2ccc(O)cc2)c2csc(C#N)c2)cc(-c2cc(Cl)ccc2C(=O)N2Cc3ccccc3C[C@H]2CN2CCOCC2)n1C [Example 442, 5-(5-Chloro-2-{[(3S)-3-(morpholin-4-ylmethyl)-3,4-dihydroisoquinolin-2(1H)-yl]carbonyl}phenyl)-N-(5-cyanothiophen-3-yl)-N-(4-hydroxyphenyl)-1,2-dimethyl-1H-pyrrole-3-carboxamide hydrochloride] | 3 | 42.8 |  |
| COc1ncc(N(C(=O)c2cc(-c3cc(F)ccc3C(=O)N3Cc4ccccc4C[C@H]3CN3CCOCC3)n(C)c2C)c2ccc(O)cc2)cn1 [Example 426, 5-(5-Fluoro-2-{[(3S)-3-(morpholin-4-ylmethyl)-3,4-dihydroisoquinolin-2(1H)-yl]carbonyl}phenyl)-N-(4-hydroxyphenyl)-N-(2-methoxypyrimidin-5-yl)-1,2-dimethyl-1H-pyrrole-3-carboxamide] | 5.2 | 139 |  |
